Measured values taken from patent US9758491B2, “Molecules having pesticidal utility, and intermediates, compositions, and processes, related thereto” (priority 2015, dated 2017).

Experiments:
Type in all cases: in vivo
[1] = test system: Beet Armyworm (Spodoptera exigua, LAPHEG); experiment: Bioassay on Beet Armyworm (BAW), 128-well diet tray assay; conditions: 168 h, 50 μg/cm^2 on artificial diet, second instar larvae, 25° C., five to seven days, average of eight wells, read-out: BAW rating, % Control (or Mortality)
Experimental: (§1) Certain molecules disclosed in this document were tested against BAW and CL using procedures described in the following examples. In the reporting of the results, the “BAW & CL Rating Table” was used (See Table Section).
Bioassays on BAW were conducted using a 128-well diet tray assay. One to five second instar BAW larvae were placed in each well (3 mL) of the diet tray that had been previously filled with 1 mL of artificial diet to which 50 μg/cm^2 of the test molecule (dissolved in 50 μL of 90:10 acetone-water mixture) had been applied (to each of eight wells) and then allowed to dry. Trays were covered with a clear self-adhesive cover, vented to allow gas exchange, and held at 25° C., 14:10 light-dark for five to seven days. Percent mortality was recorded for the larvae in each well; activity in the eight wells was then averaged. The results are indicated in the table entitled “Table ABC: Biological Results” (See Table Section).

[2] = test system: Yellow Fever Mosquito (Aedes aegypti, AEDSAE); experiment: Bioassay on Yellow Fever Mosquito (YFM) larvae, 96-well plate; conditions: 4000 ppm DMSO master solution diluted, about 1 day-old larvae, room temperature, scored after 3 days
Experimental: Certain molecules disclosed in this document were tested against YFM using procedures described in the following paragraph. In the reporting of the results, the “YFM Rating Table” was used (See Table Section).
Master plates containing 400 μg of a molecule dissolved in 100 μL of dimethyl sulfoxide (DMSO) (equivalent to a 4000 ppm solution) are used. A master plate of assembled molecules contains 15 μL per well. To this plate, 135 μL of a 90:10 water/acetone mixture is added to each well. A robot (Biomek® NXP Laboratory Automation Workstation) is programmed to dispense 15 μL aspirations from the master plate into an empty 96-well shallow plate (“daughter” plate). There are 6 reps (“daughter” plates) created per master. The created “daughter” plates are then immediately infested with YFM larvae.
The day before plates are to be treated, mosquito eggs are placed in Millipore water containing liver powder to begin hatching (4 g into 400 mL). After the “daughter” plates are created using the robot, they are infested with 220 μL of the liver powder/larval mosquito mixture (about 1 day-old larvae). After plates are infested with mosquito larvae, a non-evaporative lid is used to cover the plate to reduce drying. Plates are held at room temperature for 3 days prior to grading. After 3 days, each well is observed and scored based on mortality. The results are indicated in the table entitled “Table ABC: Biological Results” (See Table Section).

[3] = test system: Cabbage Looper (Trichoplusia ni, TRIPNI); experiment: Bioassay on Cabbage Looper (CL), 128-well diet tray assay; conditions: 168 h, 50 μg/cm^2 on artificial diet, second instar larvae, 25° C., five to seven days, average of eight wells, read-out: CL rating, % Control (or Mortality)
Experimental: as §1
Bioassays on CL were conducted using a 128-well diet tray assay. One to five second instar CL larvae were placed in each well (3 mL) of the diet tray that had been previously filled with 1 mL of artificial diet to which 50 μg/cm^2 of the test molecule (dissolved in 50 μL of 90:10 acetone-water mixture) had been applied (to each of eight wells) and then allowed to dry. Trays were covered with a clear self-adhesive cover, vented to allow gas exchange, and held at 25° C., 14:10 light-dark for five to seven days. Percent mortality was recorded for the larvae in each well; activity in the eight wells was then averaged. The results are indicated in the table entitled “Table ABC: Biological Results” (See Table Section).

| Structure (SMILES) | mortality at 50 µg/cm2 [1] | YFM rating, % Control (or Mortality) [2] | mortality at 50 µg/cm2 [3] |
| --- | --- | --- | --- |
| N/C(=N\C(=O)Nc1ccc(-c2ncn(-c3ccc(OC(F)(F)F)cc3)n2)cc1)Nc1ccccc1-c1ccccc1 [F1, (1E)-1-[Amino-(2-phenylanilino)methylene]-3-[4-[1-[4-(trifluoromethoxy)phenyl]-1H-1,2,4-triazol-3-yl]phenyl]urea] | 50 to 100% | A (80-100) | 50 to 100% |
| N/C(=N\C(=O)Nc1ccc(-c2ncn(-c3ccc(OC(F)(F)F)cc3)n2)cc1)Nc1ccccc1Cc1ccccc1 [F2, (1E)-1-[Amino-(2-benzylanilino)methylene]-3-[4-[1-[4-(trifluoromethoxy)phenyl]-1H-1,2,4-triazol-3-yl]phenyl]urea] | 50 to 100% | A (80-100) | 50 to 100% |
| CCc1ccccc1N/C(N)=N/C(=O)Nc1ccc(-c2ncn(-c3ccc(OC(F)(F)F)cc3)n2)cc1 [F3, (1E)-1-[Amino-(2-ethylanilino)methylene]-3-[4-[1-[4-(trifluoromethoxy)phenyl]-1H-1,2,4-triazol-3-yl]phenyl]urea] | 50 to 100% | A (80-100) | 50 to 100% |
| N/C(=N\C(=O)Nc1ccc(-c2ncn(-c3ccc(OC(F)(F)F)cc3)n2)cc1)Nc1ccccc1 [F4, (1E)-1-[amino(anilino)methylene]-3-[4-[1-[4-(trifluoromethoxy)phenyl]-1H-1,2,4-triazol-3-yl]phenyl]urea] | 50 to 100% | A (80-100) | 50 to 100% |
| Cc1ccccc1N/C(N)=N/C(=O)Nc1ccc(-c2ncn(-c3ccc(OC(F)(F)F)cc3)n2)cc1 [F5, (1E)-1-[Amino-(2-methylanilino)methylene]-3-[4-[1-[4-(trifluoromethoxy)phenyl]-1H-1,2,4-triazol-3-yl]phenyl]urea] | 50 to 100% | A (80-100) | 50 to 100% |
| CCCc1ccccc1N/C(N)=N/C(=O)Nc1ccc(-c2ncn(-c3ccc(OC(F)(F)F)cc3)n2)cc1 [F6, (1E)-1-[Amino-(2-propylanilino)methylene]-3-[4-[1-[4-(trifluoromethoxy)phenyl]-1H-1,2,4-triazol-3-yl]phenyl]urea] | 50 to 100% | A (80-100) | 50 to 100% |
| Cc1ccc(C)c(N/C(N)=N/C(=O)Nc2ccc(-c3ncn(-c4ccc(OC(F)(F)F)cc4)n3)cc2)c1 [F7, (1E)-1-[Amino-(2,5-dimethylanilino)methylene]-3-[4-[1-[4-(trifluoromethoxy)phenyl]-1H-1,2,4-triazol-3-yl]phenyl]urea] | 50 to 100% | A (80-100) | 50 to 100% |
| Cc1ccc(N/C(N)=N/C(=O)Nc2ccc(-c3ncn(-c4ccc(OC(F)(F)F)cc4)n3)cc2)c(C)c1 [F8, (1E)-1-[Amino-(2,4-dimethylanilino)methylene]-3-[4-[1-[4-(trifluoromethoxy)phenyl]-1H-1,2,4-triazol-3-yl]phenyl]urea] | 50 to 100% | A (80-100) | 50 to 100% |
| COc1ccc(N/C(N)=N/C(=O)Nc2ccc(-c3ncn(-c4ccc(OC(F)(F)F)cc4)n3)cc2)c(C)c1 [F9, (1E)-1-[Amino-(4-methoxy-2-methyl-anilino)methylene]-3-[4-[1-[4-(trifluoromethoxy)phenyl]-1H-1,2,4-triazol-3-yl]phenyl]urea] | 50 to 100% | A (80-100) | 50 to 100% |
| CC(C)c1ccccc1N/C(N)=N/C(=O)Nc1ccc(-c2ncn(-c3ccc(OC(F)(F)F)cc3)n2)cc1 [F10, (1E)-1-[Amino-(2-isopropylanilino)methylene]-3-[4-[1-[4-(trifluoromethoxy)phenyl]-1H-1,2,4-triazol-3-yl]phenyl]urea] | 50 to 100% | A (80-100) | 50 to 100% |
| Cc1cccc(C)c1N/C(N)=N/C(=O)Nc1ccc(-c2ncn(-c3ccc(OC(F)(F)F)cc3)n2)cc1 [F11, (1E)-1-[amino-(2,6-dimethylanilino)methylene]-3-[4-[1-[4-(trifluoromethoxy)phenyl]-1H-1,2,4-triazol-3-yl]phenyl]urea] | 50 to 100% | – | – |
| Cc1cc(Cl)ccc1N1CCN/C1=N\C(=O)Nc1ccc(-c2ncn(-c3ccc(OC(F)(F)F)cc3)n2)cc1 [F12, (E)-1-(1-(4-Chloro-2-methylphenyl)imidazolidin-2-ylidene)-3-(4-(1-(4-(trifluoromethoxy)phenyl)-1H-1,2,4-triazol-3-yl)phenyl)urea] | 0 to 50% | D (No activity noticed in this bioassay) | 50 to 100% |
| Cc1ccc(F)cc1N1CCN/C1=N\C(=O)Nc1ccc(-c2ncn(-c3ccc(OC(F)(F)F)cc3)n2)cc1 [F13, (E)-1-(1-(5-Fluoro-2-methylphenyl)imidazolidin-2-ylidene)-3-(4-(1-(4-(trifluoromethoxy)phenyl)-1H-1,2,4-triazol-3-yl)phenyl)urea] | 50 to 100% | D (No activity noticed in this bioassay) | 50 to 100% |
| CCc1ccccc1N1CCN/C1=N\C(=O)Nc1ccc(-c2ncn(-c3ccc(OC(F)(F)F)cc3)n2)cc1 [F14, (E)-1-(1-(2-Ethylphenyl)imidazolidin-2-ylidene)-3-(4-(1-(4-(trifluoromethoxy)phenyl)-1H-1,2,4-triazol-3-yl)phenyl)urea] | 50 to 100% | A (80-100) | 50 to 100% |
| Cc1ccc(N2CCN/C2=N\C(=O)Nc2ccc(-c3ncn(-c4ccc(OC(F)(F)F)cc4)n3)cc2)c(C)c1 [F15, (E)-1-(1-(2.4-dimethylphenyl)imidazolidin-2-ylidene)-3-(4-(1-(4-(trifluoromethoxy)phenyl)-1H-1,2,4-triazol-3-yl)phenyl)urea] | 50 to 100% | A (80-100) | 50 to 100% |
| O=C(/N=C1\NCCN1c1ccccc1)Nc1ccc(-c2ncn(-c3ccc(OC(F)(F)F)cc3)n2)cc1 [F16, (E)-1-(1-Phenylimidazolidin-2-ylidene)-3-(4-(1-(4-(trifluoromethoxy)phenyl)-1H-1,2,4-triazol-3-yl)phenyl)urea] | 50 to 100% | A (80-100) | 50 to 100% |
| Cc1cc(C)c(N2CCN/C2=N\C(=O)Nc2ccc(-c3ncn(-c4ccc(OC(F)(F)F)cc4)n3)cc2)c(C)c1 [F17, (E)-1-(1-Mesitylimidazolidin-2-ylidene)-3-(4-(1-(4-(trifluoromethoxy)phenyl)-1H-1,2,4-triazol-3-yl)phenyl)urea] | 50 to 100% | A (80-100) | 50 to 100% |
| COc1ccccc1N1CCN/C1=N\C(=O)Nc1ccc(-c2ncn(-c3ccc(OC(F)(F)F)cc3)n2)cc1 [F18, (E)-1-(1-(2-Methoxyphenyl)imidazolidin-2-ylidene)-3-(4-(1-(4-(trifluoromethoxy)phenyl)-1H-1,2,4-triazol-3-yl)phenyl)urea] | 50 to 100% | A (80-100) | 50 to 100% |
| O=C(/N=C1\NCCN1c1ccccc1OC(F)(F)F)Nc1ccc(-c2ncn(-c3ccc(OC(F)(F)F)cc3)n2)cc1 [F19, (E)-1-(4-(1-(4-(Trifluoromethoxy)phenyl)-1H-1,2,4-triazol-3-yl)phenyl)-3-(1-(2-(trifluoromethoxy)phenyl)imidazolidin-2-ylidene)urea] | 0 to 50% | D (No activity noticed in this bioassay) | 50 to 100% |
